Data taken from patent publication US11491132B2, “Methods for treating thrombocytopenia” (Enzychem Lifesciences Corporation, priority 2014, dated 2022).

Key:
C3 [1] = test: C3 expression in IL-4/TNF-α treated HMC-1 cells, RT-PCR; format: cell-based, human; conditions: HMC-1 cells treated with IL-4 and TNF-α; PLAG 0.1 and 1 μg/mL pre-treatment, or S6I
Method: A blood cell line, HMC-1 (human mast cell, American Type Culture Collection, ATCC, Rockville, Md.) is incubated and maintained at 37° C. under 5% CO2 humid conditions. The medium is IMDM (Life Technologies, Karlsruhe, Germany) containing 10% Fetal Calf Serum (FCS, HyClone, Logan, Utah), 2 mM […], 100 μg/ml penicillin, 100 μg/ml streptomycin (Life Technologies). The cultured HMC-1 cells (1×10^6 cell/ml) are pre-treated with 0.1 and 1 μg/mL concentration of PLAG, followed by treating with IL-4 (5 ng) and/or TNF-α (10 ng) to induce cellular activities.
The expressed C3 and its mRNA level change are observed by using RT-PCR (Reverse Transcriptase Polymerase Chain Reaction). The RT-PCR is carried out as follows: the total RNA is separated by the standard protocol and cDNA is synthesized using AccuScript High Fidelity 1st Strand cDNA Synthesis Kit (Stratagene) by the manufacturer's instructions. Two-step RT-PCR reaction is conducted using Oligo-dT primer and reverse transcriptase, pair of primer and Taq polymerase (Takara, Shiga, Japan). […] The product of PCR is separated using 1.5% agarose gel, dyed with ethidium bromide (EtBr), and visualized with Gel Doc 2000 UV trans-illuminator (Bio-Rad Laboratories, Hercules, Calif., USA), and the experimental data is analyzed using Quantity One software (Bio-Rad Laboratories).

[2] = system: neutrophils, platelets, Complement 3; test: Chemotherapy-induced neutropenia and thrombocytopenia (CIN) animal model; format: in vivo, mice
Method: The effect of PLAG for treatment of neutropenia and thrombocytopenia induced by chemotherapy (CIN) is evaluated in an animal model. Anti-cancer agents (Gemcitabine 50 mg/kg, Cyclosphosphamide […], or Tamoxifen 50 mg/kg) are dosed daily for 3 weeks; PLAG is also administered 50 mg/kg daily for 3 weeks. After three weeks, neutrophils are harvested and counted with Auto Hematology Analyzer BC-5300.
It is believed that the neutropenia and thrombocytopenia of these agents and other chemotherapeutic agents may be due at least in part to a specific complement-mediated toxicity. This is seen in FIG. 6.

Complement 3 = test: Clinical study: activity of PLAG on Complement 3 in healthy subjects; format: in vivo, human
Method: A clinical study is conducted in Gwandong University MyungJi Hospital Clinical Study Center in Republic of Korea with 27 healthy patients to study immune-modulating effect of PLAG. Volunteers are tested for 30 days in vivo as oral administer (500 mg of PLAG per day) under a legitimate clinical approval. Complement 3 is counted using C3 assay kit. The analysis result is shown in FIG. 7, and change of immunoactivity by the administration of PLAG in healthy subjects is shown in Table 8 (effect of PLAG supplementation on immune function of peripheral blood after 4-wk intervention). As shown in FIG. 7 and Table 8, the majority of those who consume PLAG for a month (twenty-six (26) subjects out of 27 patients) show decreased complement 3 (C3), while the control group, who are treated with soybean oil, show both increase and decrease of C3.

C3 [3] = test: C3 expression in HepG2 cell line, RT-PCR of mRNA; format: cell-based, human; conditions: HepG2 cells, 2 hours
Method: A liver cell line, HepG2 (American Type Culture Collection, ATCC, Rockville, Md.), is incubated and maintained at 37° C., 5% CO2 humid atmosphere in DMEM medium. When HepG2 cells, which are known to produce complement in culture, are treated with PLAG, the activity of complement is reduced effectively, as confirmed by RT-PCR of mRNA. In the RT-PCR, 5×10^5 number of HepG2 cells/ml are distributed into 12 well plates and induced C3 for 12 hours with 10% FCS. Then PLAG is added and further cultured for 2 hours. Cells are harvested and mRNA is isolated and RT-PCR is carried out with specific primer of C3; GAPDH is used as an internal control.

[4] = system: platelets and neutrophils; test: Pilot study: thrombocytopenia and neutropenia in pancreatic cancer patients receiving chemotherapy; format: in vivo, human; conditions: 16 patients
Method: PLAG is administered to sixteen pancreatic cancer patients after chemotherapy. The subjects of this study are unoperable pancreatic cancer patients with ECOG (Eastern Cooperative Oncology Group) performance status of “0” or “1”, i.e. patients in good physical condition without much pain, able to enjoy almost normal lifestyle and thus, eligible for anticancer treatment for at least 2 months. The pancreatic cancer patients are “locally advanced” patients having tumor metastasis to the major vessels around pancreas or “Distant metastasis” patients with distant metastasis to liver, lung, bone, etc. ECOG performance status “0” refers to a patient who is asymptomatic, fully active, able to carry on all predisease activities without restriction with no pain and no problem for normal lifestyle, while “1” refers to a patient who is symptomatic but completely ambulatory with mile pain and a little problem for normal life. Anticancer (Gemcitabine and Erlotinib combo treatment) Regimen is as follows: 1,000 mg of Gemcitabine is injected once a week for three weeks (Day 1, Day 8, Day 15), and is not injected in the next one week (Day 22). Therefore, 1 cycle of anticancer treatment requires 1 month. 100 mg of Erlotinib (Tarceva) is administered once per day everyday orally. 1,000 mg of PLAG is also administered once per day orally, starting from 3 days before anticancer treatment until the last chemotherapy treatment. The PLAG treatment group and control group both completed two cycles of anticancer treatment. There is no difference among the control and PALG treatment groups in the amount or schedule of anticancer treatment.

[5] = Gemcitabine and Erlotinib, PLAG 1,000 mg once per day orally, two cycles

## CCCCC/C=C\C/C=C\CCCCCCCC(=O)OC(COC(C)=O)COC(=O)CCCCCCCCCCCCCCC (racemic) [PLAG, 1-palmitoyl-2-linoleoyl-3-acetylglycerol]
C3 [1]
  expression of C3: suppressed by PLAG on a concentration dependent basis
[2]; Gemcitabine 50 mg/kg with PLAG 50 mg/kg
  neutrophil score: improved significantly
[2]; Gemcitabine with continued PLAG vs Gemcitabine alone
  survival rate: improved survival rate
[2]; Gemcitabine, Cyclophosphamide or Tamoxifen daily 3 weeks, PLAG 50 mg/kg daily 3 weeks
  reduced neutrophil count following chemotherapy: prevented
[2]; Gemcitabine, Cyclophosphamide or Tamoxifen with PLAG
  Complement 3 activation by chemotherapeutic agents, blockage: largely blocked
[2]; Tamoxifen 50 mg/kg co-treated with PLAG 50 mg/kg vs Tamoxifen only
  activities and survival rate: faster improvement of activities and survival rate
[2]; cyclophosphamide with PLAG 50 mg/kg vs control group
  neutrophil count: improved significantly
Complement 3; after administration of PLAG, p value <0.001
  decrease of average concentration of C3 in blood: about 10 mg/dL
Complement 3; out of 27 patients, PLAG for a month
  subjects showing decreased complement 3 (C3): 26 subjects
C3 [3]; PLAG 1 microgram/ml
  inhibition of C3 expression (RT-PCR): somewhat
C3 [3]; PLAG 10 microgram/ml
  inhibition of C3 expression (RT-PCR): entirely
[4]; [5]
  patients whose platelet number dropped to less than 25,000/μl: no patient
  patients with platelet number decrease to less than 50,000/μl: no patient
[4]; PLAG treatment group
  patients with >70% decrease in platelet count: none
  patients with neutrophil decrease to less than 500/μl: none
  patients with neutrophil number decrease to less than 75%: none and not one patient
